This passage reports Activity and concentration results from ChEMBL document CHEMBL3817813, “Exploiting the co-reliance of tumours upon transport of amino acids and lactate: Gln and Tyr conjugates of MCT1 inhibitors” (Medchemcomm, 2016).

Molecules are shown by their SMILES. Active and inactive are the calls of the source. The calls are words filed in the database; no cut-off is given here.

In data set [1] the test system is MDA-MB-231. The data set is described as follows: Cytotoxicity against MCT1-deficient human MDA-MB-231 cells at 10 uM measured after 96 hrs by MTT assay. Format: cell-based. The settings on record: mda-mb-231, 96 h. In general terms: Formazan colour is commonly taken as a measure of viable cells.
Data set [2] addresses T1, Monocarboxylate transporter 1 (Homo sapiens) (UniProt P53985).
T1 sequence (whole entry): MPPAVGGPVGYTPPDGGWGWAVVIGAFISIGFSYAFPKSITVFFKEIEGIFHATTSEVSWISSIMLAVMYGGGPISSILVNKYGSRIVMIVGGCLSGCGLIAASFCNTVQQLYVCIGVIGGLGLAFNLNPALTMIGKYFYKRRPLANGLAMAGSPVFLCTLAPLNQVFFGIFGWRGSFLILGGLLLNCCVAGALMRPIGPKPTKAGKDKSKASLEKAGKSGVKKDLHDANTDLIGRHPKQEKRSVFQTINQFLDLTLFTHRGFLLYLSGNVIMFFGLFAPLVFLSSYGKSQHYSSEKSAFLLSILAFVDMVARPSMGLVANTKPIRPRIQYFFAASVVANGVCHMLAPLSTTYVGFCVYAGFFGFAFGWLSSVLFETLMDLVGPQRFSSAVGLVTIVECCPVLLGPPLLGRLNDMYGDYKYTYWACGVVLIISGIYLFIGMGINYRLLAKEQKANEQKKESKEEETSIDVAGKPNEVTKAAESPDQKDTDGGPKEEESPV
The data set is described as follows: Activity at MCT1 (unknown origin) using [14C]lactate by cell based lactate flux assay.

Data set [3] in a line: Drug uptake in Sprague-Dawley rat brain at 20 mg/kg, ip measured after 6 hrs by LC-MS/MS analysis. Format: ADME, organism-based. The settings on record: read-out: Drug uptake.
A short description of data set [4]: Drug uptake in Sprague-Dawley rat blood at 20 mg/kg, ip measured after 6 hrs by LC-MS/MS analysis. Format: ADME, organism-based. The settings on record: whole blood, read-out: Drug uptake.
A short description of data set [5]: Drug uptake in Sprague-Dawley rat spleen at 20 mg/kg, ip measured after 24 hrs by LC-MS/MS analysis. The data set is classed as ADME, organism-based. As to conditions: read-out: Drug uptake.
Data set [6] is described as follows: Drug uptake in Sprague-Dawley rat blood at 20 mg/kg, ip measured after 7 days by LC-MS/MS analysis. Format: ADME, organism-based. As to conditions: whole blood, read-out: Drug uptake.
Data set [7] can be described thus: Drug uptake in Sprague-Dawley rat spleen at 20 mg/kg, ip measured after 6 hrs by LC-MS/MS analysis. Format: ADME, organism-based. The settings on record: read-out: Drug uptake.
A short description of data set [8]: Drug uptake in Sprague-Dawley rat blood at 20 mg/kg, ip measured after 24 hrs by LC-MS/MS analysis. The data set is classed as ADME, organism-based. The settings on record: whole blood, read-out: Drug uptake.
The nature of data set [9]: Drug uptake in Sprague-Dawley rat liver at 20 mg/kg, ip measured after 7 days by LC-MS/MS analysis. Format: ADME, organism-based. As to conditions: read-out: Drug uptake.
Data set [10] in a line: Drug uptake in Sprague-Dawley rat plasma at 20 mg/kg, ip measured after 7 days by LC-MS/MS analysis. Format: ADME, organism-based.
Data set [11] can be described thus: Drug uptake in Sprague-Dawley rat plasma at 20 mg/kg, ip measured after 6 hrs by LC-MS/MS analysis. The data set is classed as ADME, organism-based.
A short description of data set [12]: Drug uptake in Sprague-Dawley rat spleen at 20 mg/kg, ip measured after 7 days by LC-MS/MS analysis. Format: ADME, organism-based. The settings on record: read-out: Drug uptake.
Data set [13] can be described thus: Drug uptake in Sprague-Dawley rat brain at 20 mg/kg, ip measured after 24 hrs by LC-MS/MS analysis. The data set is classed as ADME, organism-based. As to conditions: read-out: Drug uptake.
Data set [14] can be described thus: Drug uptake in Sprague-Dawley rat liver at 20 mg/kg, ip measured after 24 hrs by LC-MS/MS analysis. The data set is classed as ADME, organism-based. As to conditions: read-out: Drug uptake.
Data set [15] can be described thus: Drug uptake in Sprague-Dawley rat lung at 20 mg/kg, ip measured after 24 hrs by LC-MS/MS analysis. As to conditions: read-out: Drug uptake. Format: ADME, organism-based.
A short description of data set [16]: Drug uptake in Sprague-Dawley rat kidney at 20 mg/kg, ip measured after 6 hrs by LC-MS/MS analysis. Format: ADME, organism-based. As to conditions: read-out: Drug uptake.
Data set [17] in a line: Drug uptake in Sprague-Dawley rat liver at 20 mg/kg, ip measured after 6 hrs by LC-MS/MS analysis. The data set is classed as ADME, organism-based. The settings on record: read-out: Drug uptake.
Data set [18] is described as follows: Drug uptake in Sprague-Dawley rat lung at 20 mg/kg, ip measured after 6 hrs by LC-MS/MS analysis. The data set is classed as ADME, organism-based. The settings on record: read-out: Drug uptake.
Data set [19] is described as follows: Drug uptake in Sprague-Dawley rat brain at 20 mg/kg, ip measured after 7 days by LC-MS/MS analysis. As to conditions: read-out: Drug uptake. The data set is classed as ADME, organism-based.
Data set [20] in a line: Drug uptake in Sprague-Dawley rat lung at 20 mg/kg, ip measured after 7 days by LC-MS/MS analysis. Format: ADME, organism-based. As to conditions: read-out: Drug uptake.
Data set [21] is described as follows: Drug uptake in NOD/SCID mouse tumor measured after 24 hrs. The data set is classed as ADME, Neoplasm. As to conditions: read-out: Drug uptake.
A short description of data set [22]: Drug uptake in Sprague-Dawley rat plasma at 20 mg/kg, ip measured after 24 hrs by LC-MS/MS analysis. Format: ADME, organism-based.
Data set [23] in a line: Drug uptake in Sprague-Dawley rat kidney at 20 mg/kg, ip measured after 24 hrs by LC-MS/MS analysis. The settings on record: read-out: Drug uptake. The data set is classed as ADME, organism-based.
Data set [24] is described as follows: Drug uptake in Sprague-Dawley rat kidney at 20 mg/kg, ip measured after 7 days by LC-MS/MS analysis. The data set is classed as ADME, organism-based. As to conditions: read-out: Drug uptake.

Consider `CC(C)Cc1nn(C)c(=O)c2c(SCCCO)n(Cc3ccnc(Cl)c3)cc12`, for which the Activity entry in [1] is given as “Non-toxic”.

Turning to `CC(C)Cc1nn(C)c(=O)c2c(SCCCO)n(Cc3cc(NCCCCCNC(=O)[C@@H](N)CCC(N)=O)nc4ccccc34)cc12`, in [1], the Activity result was “Non-toxic”.

Regarding `CC(C)Cc1nn(C)c(=O)c2c(SCCCO)n(Cc3ccc(C#CCCCNC(=O)[C@@H](N)CCC(N)=O)c4ccccc34)cc12`, the outcome in data set [2] was Active. Further, in [1], the Activity result is listed as “Non-toxic”.

Turning to `CC(C)Cc1nn(C)c(=O)c2c(SCCCO)n(Cc3ccc(C#CCCCOc4ccc(C[C@H](N)C(=O)O)cc4)c4ccccc34)cc12`, the concentration at 6 h in [3] came to 110 nM; in data set [4], 4330 nM; in data set [7] it was 2260 nM; in data set [11] it was 3270 nM; in data set [16], 1620 nM; in data set [17], 2500 nM. Also, the concentration at 6 h in data set [18] stood at 1540 nM. The concentration at 24 h in [5] was found to be 1060 nM; in data set [8], 76 nM; in [13], 62 nM; in data set [14], 940 nM; in data set [15] it was 520 nM; in data set [21], 300 nM. In addition, the concentration at 24 h is 12 nM in [22] and 960 nM in data set [23]. Also, the concentration at 168 h stood at 41 nM in data set [6]; 98 nM in data set [9]; 4 nM in data set [10]; 190 nM in [12]; 43 nM in data set [19]; 110 nM in data set [20]. In data set [24], the concentration at 168 h came out at 210 nM. The result in [2] was Active. The Activity entry in [1] is recorded as “Non-toxic”.

For `CC(C)Cc1nn(C)c(=O)c2c(SCCCO)n(Cc3cnc(NCCCCCN)c4ccccc34)cc12`, in data set [1], the Activity result is “Non-toxic”.

In the case of `CC(C)Cc1nn(C)c(=O)c2c(SCCCO)n(Cc3cccc4ccccc34)cc12`, the concentration at 6 h in [3] is 190 nM; in [4] it was 140 nM; in [7], 740 nM; in [11], 27 nM; in data set [16], 120 nM; in [17], 63 nM. Moreover, the concentration at 6 h in data set [18] was 61 nM. Further, the concentration at 24 h in data set [5] came out at 420 nM; in data set [8] it was 63 nM; in [13], 270 nM; in data set [14], 60 nM; in data set [15], 74 nM; in data set [22] it was 4 nM. For the same compound, the concentration at 24 h in data set [23] worked out at 160 nM. Also, in data set [12], the concentration at 168 h turned out to be 43 nM. In addition, the Activity entry in data set [1] was “Non-toxic”.

`CC(C)Cc1nn(C)c(=O)c2c(SCCCO)n(Cc3cc(Cl)nc4ccccc34)cc12`: the Activity entry in data set [1] is listed as “Non-toxic”.

Take `CC(C)Cc1nn(C)c(=O)c2c(SCCCO)n(Cc3ccnc(NCCCCCN)c3)cc12`: the Activity entry in data set [1] is “Non-toxic”.

As for `CC(C)Cc1nn(C)c(=O)c2c(SCCCO)n(Cc3ccc(Br)c4ccccc34)cc12`, in [1], the Activity result is given as “Non-toxic”.

On to `CC(C)Cc1nn(C)c(=O)c2c(SCCCO)n(Cc3ccnc(NCCCCCNC(=O)[C@@H](N)CCC(N)=O)c3)cc12`, for which, in data set [1], the Activity result is listed as “Non-toxic”.

As to `CC(C)Cc1nn(C)c(=O)c2c(SCCCO)n(Cc3cc(NCCCCCN)nc4ccccc34)cc12`, in data set [1], the Activity entry is recorded as “Non-toxic”.

For the compound `CC(C)Cc1nn(C)c(=O)c2c(SCCCO)n(Cc3ccc(NCCCCCNC(=O)[C@@H](N)CCC(N)=O)nc3)cc12`, the Activity result in data set [1] is “Non-toxic”.

Take `CC(C)Cc1nn(C)c(=O)c2c(SCCCO)n(Cc3ccc(NCCCCCN)nc3)cc12`: the Activity entry in [1] is recorded as “Non-toxic”.

Regarding `CC(C)Cc1nn(C)c(=O)c2c(SCCCO)n(Cc3ccc(Cl)nc3)cc12`, the Activity result in data set [1] is “Non-toxic”.

Take `CC(C)Cc1nn(C)c(=O)c2c(SCCCO)n(Cc3cnc(Cl)c4ccccc34)cc12`: the Activity entry in data set [1] is “Non-toxic”.

For `CC(C)Cc1nn(C)c(=O)c2c(SCCCO)n(Cc3cnc(NCCCCCNC(=O)[C@@H](N)CCC(N)=O)c4ccccc34)cc12`, the outcome in [2] was Active. The Activity entry in data set [1] is listed as “Non-toxic”.
